# Experiments:
# [1] = Pharmacokinetics assay in rats, intragastric; type: in vivo; conditions: both sexes, rat, plasma, po, SD rats, 25 mg/kg, read-out: Area Under Curve AUC
# Procedure: The pharmacokinetic behavior of the compounds of the present invention was studied and evaluated in rats. 8 healthy adult SD rats, male and female in half, were purchased from SINO-BRITSH SIPPR/BK LAB. ANIMAL LTD., CO, License number: SCXK (Shanghai) 2003-0002 The right amount of compounds were weighted and grinded with 0.5% Sodium Carboxymethyl cellulose uniformly, suspended them with 1% tween 80 to 2.5 mg/mL of suspension before use. […] 8 Healthy adult SD rats, male and female in half, were divided into 2 groups. After an overnight fast, the rats were administered intragastrically at a dose of 25.0 mg/kg. […] The plasma samples were stored at −20° C. until analysis. The rats were fed 2 hours after administration. 50 μL of rat plasmas taken at various time points after administration were mixed with 50 μL of standard series solution to obtain plasma concentration of 50.0, 100, 200, 500, 1000, 2000, 5000 ng/mL. 150 μL, methanol was added and then the mixture was mixed for 3 minute using a vortexer and centrifuged for 10 minutes at 13,500 rpm. 10 μL of the supernatant was analyzed by LC-MS/MS. The main pharmacokinetic parameters were calculated by DAS 2.0 software.
# [2] = tested on: xenografts of Calu-3 human lung cancer; test: Therapeutic effects against xenografts of Calu-3 human lung cancer in nude mice; type: in vivo, BALB/cA-nude mice
# Procedure: BALB/cA-nude mice, 6 to 7 weeks old, ♀, purchased from Slaccas Experimental Animal LTD., CO.
# Nude mice were hypodermic inoculated Calu-3 human lung cancer cell. After tumors grew to 150-250 mm^3, mice were randomly divided into teams (d0).
# The volume of tumors and the weigh of the mice were measured and recorded for 2-3 times per week.
# The calculation formula of the volume of tumor (V) is: V=½×a×b^2, a: length of tumor, b: width of tumor.
# [3] = high dose (200 mg/kg), nude mice, Calu-3 xenograft
Compound,AUC [1] [ng·h/mL],"completely degraded fraction of the tumor [2, 3]","reduced fraction of the tumor volume [2, 3]",growth of Calu-3 human lung cancer ([2]; nude mice xenograft)
"CCOc1cc2ncc(C#N)c(Nc3ccc(OCc4ccccn4)c(Cl)c3)c2cc1NC(=O)/C=C/[C@@H]1CCCN1C [Example 1, (E)-N-[4-[[3-Chloro-4-(2-pyridylmethoxy)phenyl]amino]-3-cyano-7-ethoxy-6-quinolyl]-3-[(2S)-1-methylpyrrolidin-2-yl]prop-2-enamide]",52600 ± 39000,⅙,⅙,markedly inhibited
"CCOc1cc2ncc(C#N)c(Nc3ccc(OCc4ccccn4)c(Cl)c3)c2cc1NC(=O)/C=C/[C@H]1CCCN1C [Example 5, (E)-N-[4-[[3-Chloro-4-(2-pyridylmethoxy)phenyl]amino]-3-cyano-7-ethoxy-6-quinolyl]-3-[(2R)-1-methylpyrrolidin-2-yl]prop-2-enamide]",52800 ± 23600,,,

# From patent US9358227B2, “Pharmaceutical uses of 6-amino quinazoline or 3-cyano quinoline derivatives” (Jiangsu Hengrui Medicine Co., Ltd., priority 2009, dated 2016)
